From patent US9434701B2, “Aminoquinoxaline derivatives for treatment of neurodegenerative diseases” (CENTRE NATIONAL DE LA RECHERCHE SCIENTIFIQUE (CNRS), priority 2011, dated 2016)

Tests used:
[1] = test system: fetal dopaminergic neurons (TH+) in culture; assay: dopaminergic neuron spontaneous degeneration model, second protocol (Mourlevat et al.), TH+ neuron count after 10 days; assay type: cell-based; settings: Rattus norvegicus, 240 h, effect at 100 μM, 10 days of culture, read-out: TH+ neurons in % of control ± Std. Err.
Procedure: This second protocol is described in the article by Mourlevat, P. P. Michel et al. Molecular Pharmacology 2003, 64:578-586 (“Prevention of Dopaminergic Neuronal Death by Cyclic AMP in Mixed Neuronal/Glial Mesencephalic Cultures Requires the Repression of Presumptive Astrocytes”). […] Compounds according to the invention were evaluated at 50 μM except compound 4bc which was assessed at 100 μM.

[2] = influence of time before euthanasia, IP route: brain extract and plasma concentration; assay type: in vivo, C57BL\6J mice; settings: IP 70 mg/kg
Procedure: This study was done on C57BL\6J (instead of RjOrl:SWISS) mice treated with compound 4bc by IP or per os.
IP Route • Mice treated by IP route received a treatment of 70 mg/kg to […] of a solution of compound 4bc over 2 days comprising 2 IP injections the first day and 1 IP injection the second day.

For `Cc1nc2ccc(N)cc2nc1-c1ccccc1` [Compound 4bc], the activity at 100 µM [1] was 139 ± 11%, the concentration at 1 h ([2]; C57BL\6J, mouse, brain extract, 3 injections over 2 days, euthanasia approximately 1 h after last treatment) was 1000 ng/mL and the Brain extract concentration ([2]; 3 injections over 2 days, euthanasia approximately 1 h after last treatment) was 1 µg/mL. The Plasma concentration ([2]; approximately 1 h) was 1200 ng/mL, the Brain extract concentration ([2]; approximately 1 h 30 min) was 0.74 µg/mL and the Plasma concentration ([2]; approximately 1 h 30 min) was 3100 ng/mL. The Brain extract concentration ([2]; approximately 1 h 55 min) was 0.1 µg/mL, the Plasma concentration ([2]; approximately 1 h 55 min) was 1700 ng/mL and the Brain extract concentration ([2]; approximately 2 h 20 min) was 0.09 µg/mL.
